Reference: patent publication US9522124B2, “Methods for treating Alzheimer's disease” (Wisconsin Alumni Research Foundation, priority 2011, dated 2016)

Key:
Aβ = assay: ELISA determination of secreted Aβ in conditioned media of H4 cells; format: cell-based, human; conditions: 10 μM, 48 hours
Description: For Aβ determinations in the conditioned media, H4 cells were plated in 6-well Petri dishes. When 80-90% confluent, cells were washed in PBS and incubated in 1 ml of fresh medium for 48 hr. Secreted Aβ was determined by standard sandwich ELISA as described before (Costantini et al., 2007; Costantini et al., 2006; Jonas et al., 2008; Jonas et al., 2010; Ko and Puglielli, 2009; Pehar et al., 2010). For each sample, the levels of Aβ40, Aβ42, and Aβtotal were quantified as triplicate based upon standard curves run (on every ELISA plate) and then expressed as pmol Aβ/mg of protein. Aβ42 was constantly found to be ˜25% of total Aβ values.

BACE1 = assay: Western blot assessment of BACE1 levels in H4 cell lysates; format: cell-based, human; conditions: H4 cells, 10 μM, 48 hours
Description: (§1) Western blotting was performed on a 4-12% Bis-Tris SDS-PAGE system (NuPAGE; Invitrogen, Carlsbad, Calif., USA) as described previously (Costantini et al., 2006; Jonas et al., 2008; Jonas et al., 2010; Ko and Puglielli, 2007; Ko and Puglielli, 2009; Pehar et al., 2010). The following antibodies were used in this study: anti-acetylated lysine (monoclonal; cat. no. ab409; Abcam, Cambridge, Mass., USA); anti-BACE1 (polyclonal; cat. no. ab2077; Abcam); anti-Myc (monoclonal; cat. no. sc-40; santa cruz, Santa Cruz, Calif., USA); anti-ATases/NAT8 (polyclonal; cat. no. AP4957c; Abgent, San Diego, Calif., USA); anti-actin (monoclonal; cat. no. A1978; Sigma, St Louis, Mo., USA); anti-C99 (monoclonal; cat. no. M066-3; MBL, Woburn, Mass., USA); anti-acetylated H3 (polyclonal; cat. no. 06-599, Millipore, Billerica, Mass.); anti-acetylated H4 (polyclonal; cat. no. 06-866, Millipore, Billerica, Mass.); anti-αPCNA (polyclonal; cat. no. AP2835b, Abgent, San Diego, Calif., USA).
Samples were imaged with classical chemiluminescence and with the LiCor Odyssey Infrared Imaging System (LI-COR Biosciences, Lincoln, Nebr., USA). For chemiluminescent detection, HRP-conjugated anti-mouse or anti-rabbit secondary antibodies were used at 1:6000 dilution in 3% BSA/TBST (GE Healthcare). Detection was performed with either Lumiglo (KPL) or ECL Plus (GE Healthcare). For infrared imaging, goat anti-rabbit Alexa Fluor 680-conjugated secondary antibodies were used.
To assess their biological effects, we treated human neuroglioma (H4) cells with 10 μM of both compounds. […] This might reflect different kinetics of inhibition as well as different IC50s (see FIG. 2). Alternatively, it might also be explained by different cell-permeability properties. In fact, the cLog P for compound 9 and 19 is 5.03 and 3.19, respectively. The cLog P (or partition coefficient) is an indication of partition properties of a compound between hydrophobic and hydrophilic compartments. Higher values indicate preferential distribution in hydrophobic environments and, as such, increased permeability across biological membranes.

ATase1 and ATase2 [1] = assay: In vitro acetyltransferase assay, structure-activity of derivatives of compound 9 and 19 (Tables 3, 4); format: biochemical, human; conditions: refers to Table 3 / Table 4
Description: (§2) The acetyl:CoA lysine acetyltransferase activity of ATase1 and ATase2 was assayed as described before (Ko and Puglielli, 2009). Briefly, we adapted a commercially available fluorescent kit (cat. no. 10006515, Cayman Chemicals) as follows: as source of the enzymatic activity, we used affinity purified ATase1-myc and ATase2-myc at the final concentration of 300 ng/μl; as donor of the acetyl group, we used acetyl-CoA at the final concentration of 12.5 μM. […] The acetyltransferase assay was performed as recommended by the manufacturer.
(§3) We previously described a fluorescent assay that is able to assess the acetylCoA:lysine acetyltransferase activity of ATase1 and ATase2 in vitro (Ko and Puglielli, 2009). The assay employs affinity purified ATase1 or ATase2 (as enzymes), acetyl-CoA (as donor of the acetyl group) and a recombinant peptide corresponding to the N-terminal tail of the histone protein H3 (as acceptor of the acetyl group). The H3 peptide was preferred to affinity purified BACE1 because it is acetylated in a conformation independent manner ((Ko and Puglielli, 2009) and data not shown) and, therefore, more suitable for large screening approaches. To identify possible ATase1 and ATase2 inhibitors we used the assay to screen a single library of 14,400 small molecules/compounds. The screen identified 186 small molecules/compounds able to inhibit ATase1, ATase2 or both in vitro. […] Each compound was then screened for cytotoxic properties by using multi-plex cytotoxicity assays on a variety of cell lines, including human neuroblastoma and human neuroglioma. […] The above 30 compounds were individually screened on human neuroglioma (H4) cells for their ability to reduce the levels of BACE1 and the generation of Aβ. Two compounds, 9 and 19, produced significant changes and were object of further study.
Next we decided to analyze structure-activity properties of both compounds. In the case of compound 9, we designed 13 different chemical derivatives and assessed IC50s in vitro.

ATase1 and ATase2 [2] = assay: Western blot assessment of endogenous ATase1/ATase2 levels in H4 cells; format: cell-based, human; conditions: 10 μM, 48 hours
Description: FIG. 4. Compound 9 causes degradation of the ATases. (A) H4 cells were treated with the indicated compounds (10 μM) for 48 hours prior to Western blot assessment of BACE1 and ATase1/ATase2 levels in total cell lysates. (B, D and E) Quantification of changes are expressed as percent of control (no treatment) and are the average (n=3)±S.D.*, P<0.05; **, P<0.005; ^#, P<0.0005. (C) ELISA determination of secreted Aβ in the conditioned media of the experiment described in (A). Results are expressed as percent of control (no treatment) and are the average (n=3)±S.D.*, P<0.05; **, P<0.005. (F) CHO cells over-expressing either ATase1 or ATase2 were treated with compound 9 (10 μM) for 48 hours prior to Western blot assessment of ATase1 and ATase2 levels in total cell lysates.
FIG. 13. Compound 9 decreases the levels of both ATase1 and ATase2. (A) H4 cells were treated with the increasing concentrations of compound 9 for 48 hours prior to Western blot assessment of BACE1 and ATase1/ATase2 levels in total cell lysates. (B-D) Quantification of changes are expressed as percent of control (no treatment) and are the average (n=3)±S.D.*, P<0.05; **, P<0.005; ^#, P<0.0005.
as §1, with “AP2835b, Abgent, San Diego, Calif., USA).” left out

ATase1 = molecular target: T1, ATase1 (Homo sapiens, UniProt Q9UHF3); assay: AcetylCoA:lysine acetyltransferase assay (fluorescent, affinity purified ATase1-myc); format: biochemical
T1 construct: myc (C); made in house
T1 sequence (Q9UHF3 1-227): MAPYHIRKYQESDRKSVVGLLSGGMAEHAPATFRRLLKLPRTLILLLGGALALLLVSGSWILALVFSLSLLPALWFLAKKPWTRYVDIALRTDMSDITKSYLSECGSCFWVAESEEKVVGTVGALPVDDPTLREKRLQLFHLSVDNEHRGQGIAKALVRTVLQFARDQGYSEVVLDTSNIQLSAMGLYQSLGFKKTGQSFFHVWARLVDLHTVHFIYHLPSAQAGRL
Description: as §2
(§4) For kinetic analysis of ATase1 and ATase2 inhibition, the assays were performed in the presence of the indicated concentrations of compound 9, 19 and 9.I. The concentration of acetyl-CoA was varied from […]. Values were plotted as a Lineweaver-Burk plot using Graphpad Prism software.
as §3

[3] = system: cytosolic and nuclear proteins, histone proteins H3 and H4; assay: Lysine acetylation profile of cytosolic and nuclear proteins in H4 cells; format: cell-based, human; conditions: 48 hours
Description: FIG. 8. […] (A and B) H4 cells were treated with either compound 9 or 19 for 48 hours prior to Western blot assessment of the acetylation profile of cytosolic (A) and nuclear (B) proteins. (C) The nuclear fraction used in (B) was also used to assess the lysine acetylation profile of the histone proteins H3 and H4.
as §1
Cytosolic and nuclear extracts were prepared as described before (Ko and Puglielli, 2007). For cytosolic extracts, cells were homogenized in homogenization buffer containing 25 mM Tris-HCl, pH 7.4, 0.5 mM EDTA, 0.5 mM EGTA, and a protease inhibitor mixture. The homogenates were centrifuged at 14,000×g for 15 min, and supernatants were collected as cytosolic proteins.
For nuclear extracts cells were scraped into ice-cold phosphate-buffered saline and collected by centrifugation. The cell pellets were suspended in 3 volumes of lysis buffer (20 mM Hepes, pH 7.9, 10 mM KCl, 1 mM EDTA, pH 8.0, 0.2% Nonidet P-40, 10% glycerol, and a protease inhibitor mixture) followed by incubation on ice for 10 min. Cell suspensions were gently pipetted up and down; the lysates were then centrifuged at 14,000×g for 5 min at 4° C. to obtain nuclear pellets. Nuclear pellets were washed twice with cell lysis buffer (lacking Nonidet P-40 and protease inhibitor mixture) and then resuspended in 2 volumes of nuclear extract buffer (20 mM Hepes, pH 7.9, 10 mM KCl, 1 mM EDTA, pH 8.0, 420 mM NaCl, 20% glycerol, and a protease inhibitor mixture). The nuclei were extracted by incubation at 4° C. for 30 min with gentle agitation followed by centrifugation at 14,000×g at 4° C. for 5 min; the resultant supernatant fraction was used as a nuclear extract.

[4] = system: histone acetyltransferase p300/CBP; assay: In vitro activity of histone acetyltransferase p300/CBP; format: biochemical; conditions: data not shown
C99 = assay: Western blot assessment of C99 levels in H4 cell lysates; format: cell-based, human; conditions: H4 cells, 48 hours
Description: FIG. 7. Compound 9 and 19 decrease levels and activity of BACE1. H4 cells were treated with either compound 9 or 19 for 48 hours prior to Western blot assessment of BACE1 and C99 levels in cell lysates. C99 is the immediate product of BACE1-mediated cleavage of APP.
as §1

ATase2 = molecular target: T2, ATase2 (Homo sapiens, UniProt Q9UHE5); assay: AcetylCoA:lysine acetyltransferase assay (fluorescent, affinity purified ATase2-myc); format: biochemical
T2 construct: myc (C); made in house
T2 sequence (Q9UHE5 1-227): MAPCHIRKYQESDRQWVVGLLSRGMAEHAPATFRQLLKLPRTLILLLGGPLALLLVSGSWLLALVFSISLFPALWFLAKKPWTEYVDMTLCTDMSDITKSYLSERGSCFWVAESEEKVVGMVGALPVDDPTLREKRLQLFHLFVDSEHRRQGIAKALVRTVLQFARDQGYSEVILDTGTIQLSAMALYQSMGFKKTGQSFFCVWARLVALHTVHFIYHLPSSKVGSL
Description: as §2, §4, §3

[5] = Lineweaver-Burk plot, acetyl-CoA varied

Compound	inhibitory activity of derivative relative to parent compound (in words) (ATase1 and ATase2 [1])	levels of Aβ in the conditioned media / generation of Aβ (Aβ)	levels of BACE1 (BACE1)	further results
N=c1c(Cl)c2oc3cc(N)ccc3nc-2c2ccccc12 [Compound 9.A]		only 9.I retained significant ability	only 9.I retained significant ability	
CCN(CC)c1ccc2nc3c4ccccc4c(=O)cc-3oc2c1 [Compound 9.B]		only 9.I retained significant ability	only 9.I retained significant ability	
Oc1c(Cl)c2nc3ccccc3nc2c2ccccc12 [Compound 9.C]	highest activity	only 9.I retained significant ability	only 9.I retained significant ability	
CCOc1ccccc1NC1=C(Cl)C(=O)c2ccccc2C1=O [Compound 19]		decreased levels of Aβ	significant reduction	IC50 (ATase1): ~13.3 µM; kinetics of inhibition for acetyl-CoA, ATase1 (ATase1; [5]): non-competitive inhibition; acetylation profile of cytosolic and nuclear proteins [3]: Neither compound 9 nor compound 19 produced significant changes; acetylation profile of the histone protein H3 and H4 ([3]; nuclear fraction): slight reduction; inhibition of in vitro activity of p300/CBP [4]: neither compound inhibited; cellular levels of C99 (C99): decreased cellular levels of C99; IC50 (ATase2): 18.2 µM; kinetics of inhibition for acetyl-CoA, ATase2 (ATase2; [5]): non-competitive inhibition

Second part, led by results:

inhibitory activity of derivative relative to parent compound (in words) (ATase1 and ATase2 [1])	Compound	levels of Aβ in the conditioned media / generation of Aβ (Aβ)	levels of BACE1 (BACE1)	further results
decreased activity	O=C1C(Cl)=C2Nc3ccccc3OC2(O)c2ccccc21 (stereo not drawn) [Compound 9.E]	only 9.I retained significant ability	only 9.I retained significant ability	
retained inhibitory properties	O=c1ccc2nc3ccc(O)cc3oc-2c1 [Compound 9.I]	retained significant ability	retained significant ability	endogenous levels of ATase1 and ATase2 (ATase1 and ATase2 [2]): significantly down-regulate
